Data taken from ChEMBL document CHEMBL5537151, “Design, synthesis and bioactivity evaluation of novel fusion peptides and their CPT conjugates inducing effective anti-tumor responses on HER2 positive tumors” (Eur J Med Chem, 2024).
Calls of active or inactive are those of the source. The calls are words filed in the database; no cut-off is given here. Peptide text beside a SMILES is read from it. * marks the point of attachment. X1 = CCC1(C(=O)OCCS*)C(=O)OCc2c1cc1n(c2=O)Cc2cc3ccccc3nc2-1

Key:
[1] = Toxicity in nude mouse xenografted with human SK-BR-3 cells assessed as cell necrosis in liver at 8 umol/kg, iv administered every 3 days for 14 days by H and E staining based analysis; format: organism-based; conditions: in vivo, 336 h, dose 8 µmol/kg, time 14 day
[2] = Toxicity in nude mouse xenografted with human SK-BR-3 cells assessed as change in creatinine level at 8 umol/kg, iv administered every 3 days for 14 days; format: organism-based; conditions: in vivo, 336 h, dose 8 µmol/kg, time 14 day
[3] = Toxicity in nude mouse xenografted with human SK-BR-3 cells assessed as change in albumin level at 8 umol/kg, iv administered every 3 days for 14 days; format: organism-based; conditions: in vivo, 336 h, dose 8 µmol/kg, time 14 day
[4] = Drug release in human SK-BR-3 cells assessed as cathepsin-mediated SMAC polypeptide release at 10 uM incubated for 6 hrs by FITC/Lysotracker red dye based laser confocal microscopic analysis; format: ADME, cell-based; conditions: sk-br-3, 6 h
[5] = Toxicity in nude mouse xenografted with human SK-BR-3 cells assessed as inflammatory cell infiltration in spleen at 8 umol/kg, iv administered every 3 days for 14 days by H and E staining based analysis; format: organism-based; conditions: in vivo, 336 h, dose 8 µmol/kg, time 14 day
[6] = test system: SK-BR-3; experiment: Induction of apoptosis in human SK-BR-3 cells assessed as downregulation of XIAP protein expression at 2.5 uM by Western blot analysis; format: functional, cell-based; conditions: time 24-48 hrs, TDE = time-dependent effect
[7] = test system: SK-BR-3; experiment: Induction of apoptosis in human SK-BR-3 cells assessed as downregulation of cIAP1 protein expression at 2.5 uM by Western blot analysis; format: functional, cell-based; conditions: time 24-48 hrs, TDE = time-dependent effect
[8] = Toxicity in nude mouse xenografted with human SK-BR-3 cells assessed as cell necrosis in heart at 8 umol/kg, iv administered every 3 days for 14 days by H and E staining based analysis; format: organism-based; conditions: in vivo, 336 h, dose 8 µmol/kg, time 14 day
[9] = Toxicity in nude mouse xenografted with human SK-BR-3 cells assessed as change in globulin level at 8 umol/kg, iv administered every 3 days for 14 days; format: organism-based; conditions: in vivo, 336 h, dose 8 µmol/kg, time 14 day
[10] = Toxicity in nude mouse xenografted with human SK-BR-3 cells assessed as inflammatory cell infiltration in heart at 8 umol/kg, iv administered every 3 days for 14 days by H and E staining based analysis; format: organism-based; conditions: in vivo, 336 h, dose 8 µmol/kg, time 14 day
[11] = test system: SK-BR-3; experiment: Antitumor activity against human SK-BR-3 cells xenografted in nude mouse assessed as inhibition of tumor growth at 8 umol/kg, iv administered every 3 days for 14 days and measured every 2 days by vernier caliper analysis; format: functional, organism-based; conditions: dose 8.0 µmol/kg, time 14.0 day

What does the source list for `CC[C@H](C)[C@H](NC(=O)[C@@H]1CCCN1C(=O)[C@@H](NC(=O)[C@H](C)N)C(C)C)C(=O)N[C@@H](C)C(=O)N[C@@H](CCC(N)=O)C(=O)N[C@@H](CCCCN)C(=O)N[C@@H](CSSCCOC(=O)C1(CC)C(=O)OCc2c1cc1n(c2=O)Cc2cc3ccccc3nc2-1)C(=O)NCC(=O)N[C@@H](Cc1ccccc1)C(=O)N[C@@H](CC(C)C)C(=O)NCC(=O)N[C@@H](CC(N)=O)C(=O)N1CCC[C@H]1C(=O)N[C@@H](CC(N)=O)C(=O)N[C@@H](Cc1c[nH]c2ccccc12)C(=O)NCC(=O)N[C@@H](CCCNC(=N)N)C(=O)N[C@@H](CO)C(=O)N[C@@H](Cc1c[nH]c2ccccc12)C(=O)N[C@@H](Cc1ccc(O)cc1)C(=O)N[C@@H](CC(N)=O)C(=O)N[C@@H](CCC(N)=O)C(=O)N[C@@H](CCCNC(=N)N)C(=O)N[C@@H](Cc1ccccc1)C(=O)N[C@@H](CCCCN)C(N)=O` (stereo partly specified) (H-AVPIAQKC(X1)GFLGNPNWGRSWYNQRFK-NH2)?
Activity [1]: Non-Toxic; Activity [2]: Non-Toxic; Activity [3]: Non-Toxic; Drug metabolism [4]: Metabolite_Detected; Activity [5]: Non-Toxic; Activity [6]: Tde; Activity [7]: Tde; Activity [8]: Non-Toxic; Activity [9]: Non-Toxic; Activity [10]: Non-Toxic; Activity [11]: Active
